Experimental data published in ChEMBL document CHEMBL1201862, “PubChem BioAssay data set” (2004).
Active and inactive are the calls of the source.

Experiments:
HEK293 [1] = assay: EBV LMP1 TES2 canonical NF-kB signalling blockers – cell-based, HEK293, luciferase, cherry-pick, dose response (AID 588343); assay type: functional; conditions: Homo sapiens
[2] = bead-based luminescence quenchers, dual-tagged ARNT – biochemical, AlphaScreen, cherry-pick, artefact control for ARNT-TACC3 interaction inhibitor project, dose response (AID 651705); assay type: functional;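 note: AlphaScreen bead proximity signal that flags compounds interfering with the detection technology; potency reflects signal decrease which marks the compound as an assay artifact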
[3] = biological target: T1, Carboxy-terminal domain RNA polymerase II polypeptide A small phosphatase 1 (Homo sapiens, UniProt Q9GZU7); assay: CTDSP1 inhibitors, concentration-response, biochemical, absorbance readout, ultra-high-throughput screen actives (AID 540297); assay type: functional
T1 sequence (Q9GZU7 whole entry): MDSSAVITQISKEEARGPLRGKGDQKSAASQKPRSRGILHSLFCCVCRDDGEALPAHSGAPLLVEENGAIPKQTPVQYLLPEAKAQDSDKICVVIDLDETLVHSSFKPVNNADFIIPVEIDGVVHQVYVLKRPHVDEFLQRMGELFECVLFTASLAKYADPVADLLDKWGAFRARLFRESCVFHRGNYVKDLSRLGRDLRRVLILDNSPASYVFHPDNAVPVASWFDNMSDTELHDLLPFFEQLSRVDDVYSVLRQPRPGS

[4] = HEK-293T viability loss after treatment – luminescence, T-cell screen hits, cytotoxicity control for TCR NF-kB inhibitor project, dose response (AID 489026); assay type: functional, cell-based;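 note: cells exposed to compound about 14 hours before the viability readout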
CAAX prenyl protease 2 [5] = biological target: T2, CAAX prenyl protease 2 (Homo sapiens, UniProt Q9Y256); assay: inhibition of Ras-converting CAAX protease Rce1 – biochemical, yeast membranes, quenched-peptide fluorescence, cherry-pick, dose response (AID 588849)
T2 sequence (Q9Y256 whole entry): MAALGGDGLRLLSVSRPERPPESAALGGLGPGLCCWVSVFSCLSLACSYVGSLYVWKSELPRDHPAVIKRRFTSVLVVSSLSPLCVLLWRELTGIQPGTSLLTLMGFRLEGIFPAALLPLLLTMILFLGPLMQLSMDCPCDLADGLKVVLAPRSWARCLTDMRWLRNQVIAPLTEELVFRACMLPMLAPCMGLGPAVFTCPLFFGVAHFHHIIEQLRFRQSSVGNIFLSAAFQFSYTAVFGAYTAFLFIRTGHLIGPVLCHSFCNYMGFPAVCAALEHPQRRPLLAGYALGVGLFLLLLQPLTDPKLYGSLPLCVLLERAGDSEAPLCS

CAAX prenyl protease 2 [6] = biological target: T3, CAAX prenyl protease 2 (Saccharomyces cerevisiae S288c, UniProt Q03530); assay type: biochemical
T3 sequence (Q03530 whole entry): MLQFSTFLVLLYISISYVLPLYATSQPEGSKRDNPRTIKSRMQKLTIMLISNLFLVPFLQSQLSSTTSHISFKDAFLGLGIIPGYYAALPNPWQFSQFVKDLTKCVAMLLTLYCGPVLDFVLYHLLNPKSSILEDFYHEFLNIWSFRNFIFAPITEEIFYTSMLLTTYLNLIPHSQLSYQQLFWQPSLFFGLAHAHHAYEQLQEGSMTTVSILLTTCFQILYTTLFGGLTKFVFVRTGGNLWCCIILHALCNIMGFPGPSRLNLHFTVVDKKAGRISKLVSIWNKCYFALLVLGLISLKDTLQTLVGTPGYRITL

Trypsin = Trypsin (Sus scrofa, UniProt P00761); assay: trypsin protease activity blockade – biochemical, quenched peptide fluorescence, cherry-pick, selectivity assay for Rce1 protease inhibitor project, dose response (AID 488789)
[7] = biological target: T4, Nuclear receptor subfamily 0 group B member 1 (Homo sapiens, UniProt P51843); assay: Luminescence-based cell-based high throughput dose response assay for inhibitors of the orphan nuclear receptor subfamily 0, group B, member 1 (DAX1; NR0B1). [Related pubchem assays (depositor defined):AID504766, AID504790]; assay type: functional
T4 sequence (P51843 whole entry): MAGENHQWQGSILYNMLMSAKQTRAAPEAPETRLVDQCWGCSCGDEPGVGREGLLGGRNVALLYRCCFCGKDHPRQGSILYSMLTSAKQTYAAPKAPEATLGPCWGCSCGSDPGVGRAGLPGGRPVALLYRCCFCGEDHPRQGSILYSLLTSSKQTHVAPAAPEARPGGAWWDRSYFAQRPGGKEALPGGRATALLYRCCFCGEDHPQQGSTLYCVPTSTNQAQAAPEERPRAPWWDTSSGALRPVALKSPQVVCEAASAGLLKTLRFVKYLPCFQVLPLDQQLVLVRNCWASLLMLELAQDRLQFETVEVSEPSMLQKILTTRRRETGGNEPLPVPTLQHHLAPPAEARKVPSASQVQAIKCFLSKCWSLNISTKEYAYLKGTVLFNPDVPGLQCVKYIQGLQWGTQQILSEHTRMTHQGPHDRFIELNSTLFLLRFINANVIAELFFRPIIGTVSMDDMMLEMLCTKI

HEK293 [8] = assay: cells; assay type: functional, cell-based; conditions: Homo sapiens
[9] = biological target: T5, Sentrin-specific protease 6 (Homo sapiens, UniProt Q9GZR1); assay type: functional;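 note: Luminescence-based dose-response confirmatory assay of SENP6 inhibition, following up an ultra-high-throughput screen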
T5 sequence (Q9GZR1 whole entry): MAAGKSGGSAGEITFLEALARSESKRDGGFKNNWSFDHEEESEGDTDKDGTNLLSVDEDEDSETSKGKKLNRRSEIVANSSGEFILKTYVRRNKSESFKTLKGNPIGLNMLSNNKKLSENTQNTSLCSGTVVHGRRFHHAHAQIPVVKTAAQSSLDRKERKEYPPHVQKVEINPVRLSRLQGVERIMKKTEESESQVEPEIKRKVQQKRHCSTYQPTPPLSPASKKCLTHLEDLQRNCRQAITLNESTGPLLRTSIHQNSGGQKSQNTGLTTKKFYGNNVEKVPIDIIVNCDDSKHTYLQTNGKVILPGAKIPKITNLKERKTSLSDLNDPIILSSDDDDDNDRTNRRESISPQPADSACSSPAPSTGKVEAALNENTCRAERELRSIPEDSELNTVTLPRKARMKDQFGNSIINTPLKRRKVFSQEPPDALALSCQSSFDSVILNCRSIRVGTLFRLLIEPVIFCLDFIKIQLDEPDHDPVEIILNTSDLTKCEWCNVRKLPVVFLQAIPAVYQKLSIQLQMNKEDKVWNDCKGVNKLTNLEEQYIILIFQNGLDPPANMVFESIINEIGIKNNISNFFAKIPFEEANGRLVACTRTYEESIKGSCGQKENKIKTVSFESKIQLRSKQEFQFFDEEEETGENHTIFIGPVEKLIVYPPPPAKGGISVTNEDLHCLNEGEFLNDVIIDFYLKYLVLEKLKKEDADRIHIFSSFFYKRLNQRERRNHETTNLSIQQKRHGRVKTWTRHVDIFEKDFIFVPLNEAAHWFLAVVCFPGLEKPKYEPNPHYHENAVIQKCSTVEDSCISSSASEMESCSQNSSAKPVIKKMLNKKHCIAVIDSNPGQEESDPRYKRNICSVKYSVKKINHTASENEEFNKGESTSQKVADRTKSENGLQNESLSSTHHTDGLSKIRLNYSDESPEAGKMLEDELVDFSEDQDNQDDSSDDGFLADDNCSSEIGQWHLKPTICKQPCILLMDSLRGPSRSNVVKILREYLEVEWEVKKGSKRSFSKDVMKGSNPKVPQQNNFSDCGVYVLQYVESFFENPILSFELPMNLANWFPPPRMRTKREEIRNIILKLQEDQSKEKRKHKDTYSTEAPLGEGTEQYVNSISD

[10] = biological target: T6, Sentrin-specific protease 8 (Homo sapiens, UniProt Q96LD8); assay type: functional;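 note: luminescence read-out of SENP8 inhibition, dose-response confirmation following an ultra-high-throughput screen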
T6 sequence (Q96LD8 whole entry): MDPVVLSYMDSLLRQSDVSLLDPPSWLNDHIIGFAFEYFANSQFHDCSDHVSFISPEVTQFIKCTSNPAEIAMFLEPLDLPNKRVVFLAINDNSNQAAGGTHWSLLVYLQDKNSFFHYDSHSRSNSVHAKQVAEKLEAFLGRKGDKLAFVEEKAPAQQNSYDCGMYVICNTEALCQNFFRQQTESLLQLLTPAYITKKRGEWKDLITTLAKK

Caspase-3 = biological target: T7, Caspase-3 (Homo sapiens, UniProt P42574); assay type: functional;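 note: Dose-response selectivity test against caspase-3 for candidate inhibitors of sentrin-specific proteases (SENPs)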
T7 sequence (P42574 whole entry): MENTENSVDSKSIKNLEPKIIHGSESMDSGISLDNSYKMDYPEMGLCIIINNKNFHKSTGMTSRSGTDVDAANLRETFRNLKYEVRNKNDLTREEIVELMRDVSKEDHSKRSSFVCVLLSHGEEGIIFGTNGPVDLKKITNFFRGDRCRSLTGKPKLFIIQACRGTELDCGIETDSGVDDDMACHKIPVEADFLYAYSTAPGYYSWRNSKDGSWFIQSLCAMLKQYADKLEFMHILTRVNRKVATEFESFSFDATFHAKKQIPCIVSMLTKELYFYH

[11] = biological target: T8, Sentrin-specific protease 7 (Homo sapiens, UniProt Q9BQF6); assay type: functional;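 note: Luminescence-based dose-response confirmation of ultra-high-throughput screening hits, measuring inhibition of SENP7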
T8 sequence (Q9BQF6 whole entry): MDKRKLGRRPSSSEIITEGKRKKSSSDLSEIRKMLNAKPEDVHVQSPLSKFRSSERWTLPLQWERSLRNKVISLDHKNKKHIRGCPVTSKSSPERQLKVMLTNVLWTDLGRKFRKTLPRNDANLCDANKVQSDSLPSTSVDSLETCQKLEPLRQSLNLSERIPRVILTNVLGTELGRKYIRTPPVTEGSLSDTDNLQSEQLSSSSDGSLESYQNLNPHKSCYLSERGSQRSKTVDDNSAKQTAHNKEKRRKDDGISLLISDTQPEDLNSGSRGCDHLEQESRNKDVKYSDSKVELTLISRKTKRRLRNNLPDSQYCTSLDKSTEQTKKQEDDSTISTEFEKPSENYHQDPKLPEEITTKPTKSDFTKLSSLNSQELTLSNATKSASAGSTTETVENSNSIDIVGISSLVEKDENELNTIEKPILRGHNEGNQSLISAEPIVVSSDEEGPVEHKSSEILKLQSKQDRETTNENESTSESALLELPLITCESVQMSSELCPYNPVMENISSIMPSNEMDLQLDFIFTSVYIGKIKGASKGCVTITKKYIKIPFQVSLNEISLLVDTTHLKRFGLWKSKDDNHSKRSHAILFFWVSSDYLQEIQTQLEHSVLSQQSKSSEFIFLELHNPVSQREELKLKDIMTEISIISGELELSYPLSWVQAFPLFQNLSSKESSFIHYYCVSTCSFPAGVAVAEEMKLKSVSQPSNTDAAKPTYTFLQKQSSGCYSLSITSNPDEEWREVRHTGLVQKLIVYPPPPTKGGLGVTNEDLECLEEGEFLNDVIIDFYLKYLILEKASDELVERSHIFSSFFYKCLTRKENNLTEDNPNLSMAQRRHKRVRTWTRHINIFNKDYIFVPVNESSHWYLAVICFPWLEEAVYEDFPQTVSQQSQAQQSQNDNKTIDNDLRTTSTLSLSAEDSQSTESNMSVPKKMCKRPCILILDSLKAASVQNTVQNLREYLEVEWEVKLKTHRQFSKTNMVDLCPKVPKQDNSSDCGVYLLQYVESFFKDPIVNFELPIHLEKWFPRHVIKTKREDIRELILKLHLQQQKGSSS

Sequence of Trypsin (P00761 whole entry): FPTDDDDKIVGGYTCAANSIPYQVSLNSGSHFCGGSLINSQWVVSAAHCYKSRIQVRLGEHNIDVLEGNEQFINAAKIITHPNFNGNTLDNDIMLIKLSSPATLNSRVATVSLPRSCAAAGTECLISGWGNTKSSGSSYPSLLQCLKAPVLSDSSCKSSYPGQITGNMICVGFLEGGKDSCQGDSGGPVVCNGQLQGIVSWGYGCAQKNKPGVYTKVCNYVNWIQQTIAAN

Cc1nc2ncccn2c1-c1csc(Nc2ccccc2)n1
AC50 (HEK293 [1]): 28.1 µM (active)
AC50 [2]: 93.5 µM (active)

COc1cc2nc(NC(=O)c3ccco3)sc(=O)c2cc1OC
IC50 [3]: 10.5 µM (active)
AC50 (HEK293 [1]): 6.84 µM (active)
IC50 [4]: > 80 µM (inactive)

Nc1c(C(=O)NCCN2CCOCC2)c2nc3ccccc3nc2n1-c1cccc(F)c1
AC50 (CAAX prenyl protease 2 [5]): 5.43 µM (active)
AC50 (CAAX prenyl protease 2 [6]): 15 µM (active)
AC50 (Trypsin): 12.4 µM (active)

COc1ccc(C2SCC(C(=O)O)N2C(C)=O)cc1OC (centres undefined)
IC50 [7]: > 67.5 µM (inactive)
IC50 (HEK293 [8]): > 67.5 µM (inactive)

Clc1ccc(-c2nnc(NC3=NCCCCC3)o2)cc1
IC50 [9]: 30.1 µM (active)
IC50 [10]: 29.8 µM (active)
AC50 (HEK293 [1]): 1.84 µM (active)
IC50 (Caspase-3): 15 µM (active)
IC50 [11]: 15.4 µM (active)

Cc1ccc(CN2CCN(/N=C/c3ccccc3)CC2)cc1
IC50 [7]: > 67.6 µM (inactive)
IC50 (HEK293 [8]): > 67.6 µM (inactive)

Cc1cc(NC(=O)CSc2nc(N)c(NC(=O)c3ccco3)c(O)n2)no1
IC50 [7]: > 67.6 µM (inactive)
IC50 (HEK293 [8]): > 67.6 µM (inactive)
